Measurements as given in US20180264074A1, “USE OF POLYMYXIN AS AN ANTIDOTE FOR INTOXICATIONS BY AMATOXINS” (UNIVERSIDADE DO PORTO, priority 2015, published 2018).

Assays:
adult male mice (CD-1) [1] = assay type: in vivo
Experimental: (§1) For this purpose, adult male mice (CD-1) were used. Two experiments were performed to test polymyxin B effectiveness: polymyxin B was administered concomitantly with α-amanitin and four hours after administration of α-amanitin. Concomitant therapy consisted of 0.33 mg/kg of α-amanitin followed by 2.5 mg/kg of polymyxin B (one administration). In the second experiment, three 2.5 mg/kg administrations of polymyxin B were used in different time-points [4, 8 and 12 h, intraperitoneal (i.p.) administration] after one α-amanitin (dose 0.33 mg/kg i.p.) exposure, as to mimic the clinical scenario of late intoxication diagnosis; human intoxication is often only found hours later when symptoms become clinically relevant. […] Moreover 50% of animal exposed to polymyxin B 4, 8 and 12 h after α-amanitin survived […]. In order to validate and unveil some mechanisms involved, an acute study with the same doses and scheme was performed, with animals being sacrificed 24 h after α-amanitin administration.
FIG. 1. Survival curves after concomitant i.p. administration of 0.33 mg/kg of α-amanitin and polymyxin B (Ama+Pol— 2.5 mg/kg) and 3 administrations of polymyxin B (Ama+Pol— 3×2.5 mg/kg) at different time-points (4, 8 and 12 h, i.p. administration) after one α-amanitin (dose 0.33 mg/kg i.p.). Results are expressed in percent survival. Control tests were performed (Control), consisting of a saline-control treatment. A polymyxin treatment (Pol) was additionally performed. A treatment with α-amanitin (Ama) as also made.
For this purpose, adult male mice (CD-1) were used. Two experiments were performed to test polymyxin B effectiveness: polymyxin B was administered concomitantly with α-amanitin and four hours after administration of α-amanitin. Concomitant therapy consisted of 0.33 mg/kg of α-amanitin followed by 2.5 mg/kg of polymyxin B (one administration). In the second experiment, three 2.5 mg/kg administrations of polymyxin B were used in different time-points (4, 8 and 12 h, i.p. administration) after one α-amanitin exposure (0.33 mg/kg i.p dose), as to mimic the clinical scenario of late intoxication diagnosis; human intoxication is often only found hours later when symptoms become clinically relevant. […] Moreover, 50% of animals exposed to polymyxin B 4, 8 and 12 h after α-amanitin survived (FIG. 1). In order to validate and unveil some mechanisms involved, an acute study with the same doses and scheme was performed with polymyxin B 4, 8 and 12 h after α-amanitin administration. Animals were sacrificed 24 h after α-amanitin administration. […] The renal corpuscles appearance is heterogeneous, with a wide capsular space, and thickened external Bowman capsule. […]

adult male mice (CD-1) [2] = test: Acute study, animals sacrificed 24 h after α-amanitin: plasma aminotransferases, liver and kidney histology; assay type: in vivo
Experimental: as §1
FIG. 2. Plasma levels of Aspartate aminotransferase (AST) and alanine aminotransferase (ALT) in control, polymyxin B (3×2.5 mg/kg) (Pol), α-amanitin (Ama) and α-amanitin+polymyxin B (3×2.5 mg/kg) (Ama+Pol) groups. Results are presented as means±standard deviation (SD), and were obtained from 4-5 animals from each treatment. Statistical comparisons were made using Kruskal-Wallis ANOVA on Ranks followed by the Dunn's post hoc test (*p<0.05, Ama vs. control; #p<0.05, Ama vs. Ama+Pol).
FIG. 3. Liver histopathology by light microscopy. (A) Light micrograph (40×) from α-amanitin treated-group. The presence of cellular oedema (1), cytoplasmic vacuolization (2), interstitial inflammatory cell infiltration (3), as well as some necrotic zones can be seen (4). (B) Light micrograph (40×) from α-amanitin+polymixin B (3×2.5 mg/kg) group. […] Increase number interstitial inflammatory cell was still observed.
FIG. 4. Kidney histopathology by light microscopy (A) Light micrograph (10×) from α-amanitin-treated group. The presence of cytoplasmatic vacuolization (5), renal corpuscles with a wide capsular space, and thickened external Bowman capsule (6), as well as some necrotic zones can be seen (7). The presence large amounts of fibrin-related material cause enlargement and obstruction of distal tubules (8). (B) Light micrograph (10×) from α-amanitin+polymixin B (3×2.5 mg/kg) group.
For this purpose, adult male mice (CD-1) were used. Two experiments were performed to test polymyxin B effectiveness: polymyxin B was administered concomitantly with α-amanitin and four hours after administration of α-amanitin. Concomitant therapy consisted of 0.33 mg/kg of α-amanitin followed by 2.5 mg/kg of polymyxin B (one administration). In the second experiment, three 2.5 mg/kg administrations of polymyxin B were used in different time-points (4, 8 and 12 h, i.p. administration) after one α-amanitin exposure (0.33 mg/kg i.p dose), as to mimic the clinical scenario of late intoxication diagnosis; human intoxication is often only found hours later when symptoms become clinically relevant. […] Moreover, 50% of animals exposed to polymyxin B 4, 8 and 12 h after α-amanitin survived (FIG. 1). In order to validate and unveil some mechanisms involved, an acute study with the same doses and scheme was performed with polymyxin B 4, 8 and 12 h after α-amanitin administration. Animals were sacrificed 24 h after α-amanitin administration. […] The renal corpuscles appearance is heterogeneous, with a wide capsular space, and thickened external Bowman capsule. […] Marked atrophy and degeneration of distal tubules cells was also observed, and large amounts of fibrin-related material caused enlargement and obstruction of these tubules.

[3] = 24 h after α-amanitin 0.33 mg/kg i.p., polymyxin B 3×2.5 mg/kg at 4, 8 and 12 h
[4] = 24 h after α-amanitin 0.33 mg/kg i.p., polymyxin B 3×2.5 mg/kg at 4, 8 and 12 h, listed as polymixin B

| Molecule | day until which all animals died (adult male mice (CD-1) [1]; single dose of α-amanitin 0.33 mg/kg i.p., no antidote) [days] | kidney histology (light microscopy) (adult male mice (CD-1) [2]; [3]) | liver histology (light microscopy) (adult male mice (CD-1) [2]; [3]) | plasma aminotransferases (AST, ALT) (adult male mice (CD-1) [2]; [3]) | kidney histology (light microscopy) (adult male mice (CD-1) [2]; [4]) | liver histology (light microscopy) (adult male mice (CD-1) [2]; [4]) | hepatic and renal damage (histological and plasma data) (adult male mice (CD-1) [2]; 24 h after α-amanitin administration, same doses and scheme) | signs of injury or discomfort (adult male mice (CD-1) [1]; concomitant polymyxin B 2.5 mg/kg with α-amanitin 0.33 mg/kg, up to day 30) | animals that survived (adult male mice (CD-1) [1]; polymyxin B 3×2.5 mg/kg i.p. at 4, 8 and 12 h after α-amanitin 0.33 mg/kg i.p.) [%] | animals that survived until the 30th day (adult male mice (CD-1) [1]; α-amanitin 0.33 mg/kg i.p. followed by polymyxin B 2.5 mg/kg, one concomitant administration) [%] |
| --- | --- | --- | --- | --- | --- | --- | --- | --- | --- | --- |
| CC[C@H](C)[C@@H]1NC(=O)CNC(=O)[C@@H]2Cc3c([nH]c4cc(O)ccc34)[S@+]([O-])C[C@H](NC(=O)CNC1=O)C(=O)N[C@@H](CC(N)=O)C(=O)N1C[C@H](O)C[C@H]1C(=O)N[C@@H]([C@@H](C)[C@@H](O)CO)C(=O)N2 [α-amanitin] | ≤ 5 | – | – | – | – | – | – | – | – | – |
| polymyxin B | – | protected against the occurrence of the above referred alterations, particularly the necrosis and the obstruction of distal tubules | significant reversion against α-amanitin-induced necrotic changes as well as the induced oedema and cytoplasmic vacuolization | totally reverted | oedema, cytoplasmatic vacuolization and necrosis, were significantly attenuated | oedema, cytoplasmatic vacuolization and necrosis, were significantly attenuated | protected against hepatic and renal damage caused by α-amanitin | without major signs of injury or discomfort | 50 | 100 |
